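Test compounds were applied to cells in 96-well plates for 48 hours at 5 doses. TGI denotes the concentration required for complete inhibition of growth.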
Key:
Experiment in all cases: NCI-60 cell line screen, 48 h
786-0 renal = test system: 786-0 renal
A498 renal = test system: A498 renal
A549 NSCLC = test system: A549 NSCLC
ACHN renal = test system: ACHN renal
BT-549 breast = test system: BT-549 breast
CAKI-1 renal = test system: CAKI-1 renal
CCRF-CEM leukemia = test system: CCRF-CEM leukemia
COLO 205 colon = test system: COLO 205 colon
DU-145 prostate = test system: DU-145 prostate
EKVX NSCLC = test system: EKVX NSCLC
HCC-2998 colon = test system: HCC-2998 colon
HCT-116 colon = test system: HCT-116 colon
HCT-15 colon = test system: HCT-15 colon
HL-60(TB) leukemia = test system: HL-60(TB) leukemia
HOP-62 NSCLC = test system: HOP-62 NSCLC
HOP-92 NSCLC = test system: HOP-92 NSCLC
HS 578T breast = test system: HS 578T breast
HT29 colon = test system: HT29 colon
IGROV1 ovarian = test system: IGROV1 ovarian
K-562 leukemia = test system: K-562 leukemia
KM12 colon = test system: KM12 colon
LOX IMVI melanoma = test system: LOX IMVI melanoma
M14 melanoma = test system: M14 melanoma
MALME-3M melanoma = test system: MALME-3M melanoma
MCF7 breast = test system: MCF7 breast
MDA-MB-231 breast = test system: MDA-MB-231 breast
MDA-MB-435 = test system: MDA-MB-435
MDA-N = test system: MDA-N
MOLT-4 leukemia = test system: MOLT-4 leukemia
NCI-H226 lung = test system: NCI-H226 lung
NCI-H23 lung = test system: NCI-H23 lung
NCI-H460 lung = test system: NCI-H460 lung
NCI-H522 lung = test system: NCI-H522 lung
NCI/ADR-RES ovarian = test system: NCI/ADR-RES ovarian
OVCAR-3 ovarian = test system: OVCAR-3 ovarian
OVCAR-4 ovarian = test system: OVCAR-4 ovarian
OVCAR-5 ovarian = test system: OVCAR-5 ovarian
OVCAR-8 ovarian = test system: OVCAR-8 ovarian
PC-3 prostate = test system: PC-3 prostate
RPMI-8226 leukemia = test system: RPMI-8226 leukemia
RXF 393 renal = test system: RXF 393 renal
SF-268 CNS = test system: SF-268 CNS
SF-295 CNS = test system: SF-295 CNS
SF-539 CNS = test system: SF-539 CNS
SK-MEL-2 melanoma = test system: SK-MEL-2 melanoma
SK-MEL-28 melanoma = test system: SK-MEL-28 melanoma
SK-MEL-5 melanoma = test system: SK-MEL-5 melanoma
SK-OV-3 ovarian = test system: SK-OV-3 ovarian
SN12C renal = test system: SN12C renal
SNB-19 CNS = test system: SNB-19 CNS
SNB-75 CNS = test system: SNB-75 CNS
SW-620 colon = test system: SW-620 colon
T-47D breast = test system: T-47D breast
TK-10 renal = test system: TK-10 renal
U251 CNS = test system: U251 CNS
UACC-257 melanoma = test system: UACC-257 melanoma
UACC-62 melanoma = test system: UACC-62 melanoma
UO-31 renal = test system: UO-31 renal
SR leukemia = test system: SR leukemia

NCS(=O)(=O)O
TGI (786-0 renal): > 100 µM | TGI (A498 renal): > 100 µM | TGI (A549 NSCLC): > 100 µM | TGI (ACHN renal): > 100 µM | TGI (BT-549 breast): > 100 µM | TGI (CAKI-1 renal): > 100 µM | TGI (CCRF-CEM leukemia): > 100 µM | TGI (COLO 205 colon): > 100 µM | TGI (DU-145 prostate): > 100 µM | TGI (EKVX NSCLC): > 100 µM | TGI (HCC-2998 colon): > 100 µM | TGI (HCT-116 colon): > 100 µM | TGI (HCT-15 colon): > 100 µM | TGI (HL-60(TB) leukemia): > 100 µM | TGI (HOP-62 NSCLC): > 100 µM | TGI (HOP-92 NSCLC): > 100 µM | TGI (HS 578T breast): > 100 µM | TGI (HT29 colon): > 100 µM | TGI (IGROV1 ovarian): > 100 µM | TGI (K-562 leukemia): > 100 µM | TGI (KM12 colon): > 100 µM | TGI (LOX IMVI melanoma): > 100 µM | TGI (M14 melanoma): > 100 µM | TGI (MALME-3M melanoma): > 100 µM | TGI (MCF7 breast): > 100 µM | TGI (MDA-MB-231 breast): > 100 µM | TGI (MDA-MB-435): > 100 µM | TGI (MDA-N): > 100 µM | TGI (MOLT-4 leukemia): > 100 µM | TGI (NCI-H226 lung): > 100 µM | TGI (NCI-H23 lung): > 100 µM | TGI (NCI-H460 lung): > 100 µM | TGI (NCI-H522 lung): > 100 µM | TGI (NCI/ADR-RES ovarian): > 100 µM | TGI (OVCAR-3 ovarian): > 100 µM | TGI (OVCAR-4 ovarian): > 100 µM | TGI (OVCAR-5 ovarian): > 100 µM | TGI (OVCAR-8 ovarian): > 100 µM | TGI (PC-3 prostate): > 100 µM | TGI (RPMI-8226 leukemia): > 100 µM | TGI (RXF 393 renal): > 100 µM | TGI (SF-268 CNS): > 100 µM | TGI (SF-295 CNS): > 100 µM | TGI (SF-539 CNS): 52.6 µM | TGI (SK-MEL-2 melanoma): > 100 µM | TGI (SK-MEL-28 melanoma): > 100 µM | TGI (SK-MEL-5 melanoma): > 100 µM | TGI (SK-OV-3 ovarian): > 100 µM | TGI (SN12C renal): > 100 µM | TGI (SNB-19 CNS): > 100 µM | TGI (SNB-75 CNS): > 100 µM | TGI (SW-620 colon): > 100 µM | TGI (T-47D breast): > 100 µM | TGI (TK-10 renal): > 100 µM | TGI (U251 CNS): > 100 µM | TGI (UACC-257 melanoma): > 100 µM | TGI (UACC-62 melanoma): > 100 µM | TGI (UO-31 renal): > 100 µM

CC1(C)OC(=O)C(C)(C)OC1=O
TGI (786-0 renal): > 100 µM | TGI (A498 renal): > 100 µM | TGI (A549 NSCLC): > 100 µM | TGI (ACHN renal): > 100 µM | TGI (CAKI-1 renal): > 100 µM | TGI (CCRF-CEM leukemia): > 100 µM | TGI (COLO 205 colon): > 100 µM | TGI (DU-145 prostate): > 100 µM | TGI (EKVX NSCLC): > 100 µM | TGI (HCT-116 colon): > 100 µM | TGI (HCT-15 colon): > 100 µM | TGI (HL-60(TB) leukemia): > 100 µM | TGI (HOP-62 NSCLC): > 100 µM | TGI (HOP-92 NSCLC): > 100 µM | TGI (HS 578T breast): > 100 µM | TGI (HT29 colon): > 100 µM | TGI (IGROV1 ovarian): > 100 µM | TGI (K-562 leukemia): > 100 µM | TGI (KM12 colon): > 100 µM | TGI (LOX IMVI melanoma): > 100 µM | TGI (M14 melanoma): > 100 µM | TGI (MALME-3M melanoma): > 100 µM | TGI (MCF7 breast): > 100 µM | TGI (MDA-MB-231 breast): > 100 µM | TGI (MDA-MB-435): > 100 µM | TGI (MDA-N): > 100 µM | TGI (MOLT-4 leukemia): > 100 µM | TGI (NCI-H226 lung): > 100 µM | TGI (NCI-H23 lung): > 100 µM | TGI (NCI-H460 lung): > 100 µM | TGI (NCI-H522 lung): > 100 µM | TGI (NCI/ADR-RES ovarian): > 100 µM | TGI (OVCAR-3 ovarian): > 100 µM | TGI (OVCAR-4 ovarian): > 100 µM | TGI (OVCAR-5 ovarian): > 100 µM | TGI (OVCAR-8 ovarian): > 100 µM | TGI (PC-3 prostate): > 100 µM | TGI (RPMI-8226 leukemia): > 100 µM | TGI (RXF 393 renal): > 100 µM | TGI (SF-268 CNS): > 100 µM | TGI (SF-295 CNS): > 100 µM | TGI (SF-539 CNS): > 100 µM | TGI (SK-MEL-2 melanoma): > 100 µM | TGI (SK-MEL-28 melanoma): > 100 µM | TGI (SK-MEL-5 melanoma): > 100 µM | TGI (SK-OV-3 ovarian): > 100 µM | TGI (SN12C renal): > 100 µM | TGI (SNB-19 CNS): > 100 µM | TGI (SNB-75 CNS): > 100 µM | TGI (SR leukemia): > 100 µM | TGI (SW-620 colon): > 100 µM | TGI (T-47D breast): > 100 µM | TGI (TK-10 renal): > 100 µM | TGI (U251 CNS): > 100 µM | TGI (UACC-257 melanoma): > 100 µM | TGI (UACC-62 melanoma): > 100 µM | TGI (UO-31 renal): > 100 µM

O=[N+]([O-])/C(Cl)=C(\Nc1ccccc1)C(Cl)=C(Cl)Cl
TGI (786-0 renal): > 100 µM | TGI (A498 renal): 65.4 µM | TGI (A549 NSCLC): 95 µM | TGI (ACHN renal): > 100 µM | TGI (CAKI-1 renal): > 100 µM | TGI (CCRF-CEM leukemia): 42.9 µM | TGI (COLO 205 colon): 39.5 µM | TGI (DU-145 prostate): > 100 µM | TGI (EKVX NSCLC): > 100 µM | TGI (HCC-2998 colon): 94.4 µM | TGI (HCT-116 colon): > 100 µM | TGI (HCT-15 colon): 66.6 µM | TGI (HL-60(TB) leukemia): 40.1 µM | TGI (HOP-62 NSCLC): 56.6 µM | TGI (HOP-92 NSCLC): 69.5 µM | TGI (HS 578T breast): 69.6 µM | TGI (HT29 colon): 69.9 µM | TGI (IGROV1 ovarian): 79 µM | TGI (K-562 leukemia): 68.6 µM | TGI (KM12 colon): 32 µM | TGI (LOX IMVI melanoma): 88.5 µM | TGI (M14 melanoma): 58.4 µM | TGI (MALME-3M melanoma): 45.9 µM | TGI (MCF7 breast): 60.4 µM | TGI (MDA-MB-231 breast): 79.6 µM | TGI (MDA-MB-435): 35.1 µM | TGI (MDA-N): > 100 µM | TGI (MOLT-4 leukemia): > 100 µM | TGI (NCI-H226 lung): 78 µM | TGI (NCI-H23 lung): > 100 µM | TGI (NCI-H460 lung): > 100 µM | TGI (NCI-H522 lung): > 100 µM | TGI (NCI/ADR-RES ovarian): 38.5 µM | TGI (OVCAR-3 ovarian): 40.7 µM | TGI (OVCAR-4 ovarian): > 100 µM | TGI (OVCAR-5 ovarian): > 100 µM | TGI (OVCAR-8 ovarian): 53.9 µM | TGI (PC-3 prostate): > 100 µM | TGI (RPMI-8226 leukemia): 78.9 µM | TGI (RXF 393 renal): > 100 µM | TGI (SF-268 CNS): > 100 µM | TGI (SF-295 CNS): 94 µM | TGI (SF-539 CNS): 47.4 µM | TGI (SK-MEL-2 melanoma): 91.6 µM | TGI (SK-MEL-28 melanoma): > 100 µM | TGI (SK-MEL-5 melanoma): 47 µM | TGI (SK-OV-3 ovarian): > 100 µM | TGI (SN12C renal): > 100 µM | TGI (SNB-19 CNS): > 100 µM | TGI (SNB-75 CNS): 20.5 µM | TGI (SR leukemia): 69.9 µM | TGI (T-47D breast): > 100 µM | TGI (TK-10 renal): > 100 µM | TGI (U251 CNS): > 100 µM | TGI (UACC-257 melanoma): > 100 µM | TGI (UACC-62 melanoma): 94.5 µM | TGI (UO-31 renal): > 100 µM
